{
  "source": "patent US20090269418A1",
  "about": "“Compositions and Methods for Inducing Hair Growth” (BioMas Ltd, priority 2004, published 2009)",
  "key": {"[1]": {"system": "hair shedding / hair growth of the scalp in patients", "test": "Small-scale human clinical study of 0.01% AS101 topical spray, TrichoScan hair density analysis", "format": "in vivo", "text": "Two small-scale human clinical studies were each conducted over a 6 month period to evaluate the potential use of an 0.01% AS101 spray formulation for the prevention of hair shedding and/or enhancing hair growth. Patients received no other alopecia treatment for at least 3 months prior to commencement of the study.\nThe sample group consisted of 36 patients, of which 6 withdrew due to non-compliance. Data from a further 14 patients was considered to be unsuitable for analysis with the TrichoScan system, for example, due to untraceable tattoos. 16 patients were therefore available for evaluation.\nDuring an initial visit, a designated area of the scalp (about 0.7 cm^2) was shaved. Three days later, the area was tattooed using red ink, and photographed (Nikon digital camera). Patients were provided with a topical spray composition comprising 0.01% AS101 in 20% propylene glycol, 20% water and 60% ethyl alcohol, and were instructed to apply about 2 ml of the composition on the designated area on a daily basis for the first week, and once a day, twice a week thereafter. Patients were examined upon enrollment, and then after about 2 months, after about 3 months, and after about 6 months. Hair density, terminal hair density, and vellus hair density were analyzed, using the DatInf^R Image DB image archiving system, and TichoScan software.\nResults were calculated in terms of hair density, terminal hair density, and vellus hair density.\nFIGS. 2a and 2b present the data obtained for the hair density, terminal hair density and vellus hair density, each per cm^2, with two representative individuals of the study. The above parameters were measured at commencement of the study, after about 1 month, after about 3 months, and after about 6 months. All results were obtained using the DatInf^R Image DB image archiving system, and TichoScan software."}, "[2]": {"system": "bone marrow toxicity and alopecia induced by chemotherapy", "conditions": "cancer patients; cited from earlier work"}, "[3]": {"system": "hair growth", "conditions": "nude mice, normal mice; in nude mice systemic, oral or topical; cited from earlier work"}, "[4]": {"system": "hair growth", "conditions": "humans; cited from earlier work"}, "[5]": {"system": "anagen / catagen", "conditions": "C57BL/6 mouse model; cited from earlier work"}, "[6]": {"system": "KGF expression", "conditions": "cultured fibroblasts; via Cys118 of p21ras, ras signalling pathway; cited from earlier work"}, "[7]": {"system": "interferon (IFN)", "conditions": "mice; cited from earlier work"}, "[8]": {"system": "interferon (IFN)", "conditions": "humans; cited from earlier work"}, "[9]": {"system": "IL-1, IL-6, TNF-α, IL-10", "conditions": "cited from earlier work"}},
  "note": "Entries after “also recorded” stand apart in the source; their conditions may differ. Like-named read-outs stand apart in the source and are kept apart here.",
  "data": [
    {"smiles": "Cl[TeH]1(Cl)(Cl)OCCO1", "note": "[AS101, ammonium trichloro(dioxyethylene-O,O′)tellurate]", "values": [
      {"measurement": "side-effects", "setting": "[1]; 0.01% AS101 topical spray, 6 months", "result": "No side-effects were observed"},
      {"measurement": "patients responding partially (increase observed during part of the treatment period)", "setting": "[1]; 0.01% AS101 topical spray, 6 months, 16 evaluable patients", "result": 18.75, "unit": "%"},
      {"measurement": "patients who completed the study responding with a consistent increase in hair density", "setting": "[1]; 0.01% AS101 topical spray, about 2 ml, daily first week then twice a week, 6 months, 16 evaluable patients", "result": 37.5, "unit": "%"},
      {"measurement": "hair density, terminal hair density and vellus hair density per cm^2", "setting": "[1]; after about 1 month, representative person and person (FIGS. 2a, 2b)", "result": "significant increase"},
      {"measurement": "protection from bone marrow toxicity and alopecia induced by chemotherapy", "setting": "[2]", "result": "ability to protect"},
      {"measurement": "induction of hair growth", "setting": "[3]", "result": "induce hair growth"},
      {"measurement": "induction of hair growth", "setting": "[4]", "result": "induce hair growth"},
      {"measurement": "anagen induction and retardation of spontaneous catagen", "setting": "[5]", "result": "induce anagen and retard spontaneous catagen"},
      {"measurement": "KGF expression", "setting": "[6]", "result": "upregulates KGF expression"},
      {"measurement": "interferon (IFN) induction", "setting": "[7]", "result": "potent activator; also recorded: potent inducer"},
      {"measurement": "interferon (IFN) induction", "setting": "[8]", "result": "potent activator; also recorded: potent inducer"},
      {"measurement": "IL-10 inhibition", "setting": "[9]; m-RNA level", "result": "inhibit IL-10 at the m-RNA level"},
      {"measurement": "secretion of cytokines such as IL-1, IL-6 and TNF-α", "setting": "[9]; macrophages are one main target", "result": "induce the secretion"}
    ]}
  ]
}
